From patent US20140120165A1, “CORTICOSTEROID PARTICLES AND METHOD OF PRODUCTION” (priority 2010, published 2014)

Conditions: rat
Procedure: Seven budesonide formulations were assessed for the ability to cross the lung by perfusion on an isolated lung perfusion system. LC-MS/MS was utilized to measure budesonide concentration in perfusate samples collected for up to approximately 123 minutes after intratracheal (IT) administration of the representative formulations to male Sprague-Dawley rats. The mass of budesonide remaining in the lung was also measured at the terminus of the procedure.
After release from quarantine, the study animals were euthanized with an IP injection of a barbiturate (minimum 150 mg/kg pentobarbital). The trachea, pulmonary artery and left ventricle were cannulated and the heart/lung bloc was removed from the thoracic cavity. The heart/lung bloc was placed in an artificial thoracic cavity (Hugo Sachs Electronik-Harvard). The budesonide suspension test formulations were administered by intratracheal installation at a volume of 40-100 μL. Following test formulation delivery, fractionated single pass perfusate samples were collected over a 2 hour period. The concentration of budesonide in the perfusate and lung tissue was determined by Liquid Chromatography-Mass Spectrometry (LC-MS/MS).
The test formulations contained in single unit dose vials (1.5 ml or 2 ml) were inverted several times before being transferred to a secondary container. Bulk formulations were diluted in saline and were gently swirled, and then aliquots of 40-100 μl were drawn up in a syringe and installed IT into the isolated perfused lung model directly through a cannula placed at the top of the trachea.
The Study animals were euthanized with an overdose of pentobarbital. During necropsy, the trachea and lungs were excised from the rat and placed on the IPL system cannula. The lungs were ventilated with room air at a rate of 60 breaths per minute by negative pressure ventilation. Chamber pressures were adjusted to reach target goals of a tidal volume of 2.5 ml and a peak expiratory flow of 12 ml/sec.
Single pass perfusate samples were collected over a 60-120 minute period. Perfusate samples were fractionated into 17 samples collected at approximately (min): 0.67; 1.3; 2.7; 4; 6; 8; 10; 12.5; 15; 22; 29; 36; 43; 63; 83; 103; and 123.
Perfusate and lung tissue samples were stored at −80° C. prior to subsequent analysis by LC-MS/MS. During operation of the isolated perfused lung (IPL) system pressure and flow recordings were collected using EMKA (version 2.5) software. […] Data was reduced to 5 minute data points for the purposes of statistical comparisons. Mean and standard error were performed on the perfusate and lung tissue concentrations using Microsoft Excel software. Pharmacokinetic properties were evaluated by WinNonlin software (Version 5.0.1, Pharsight Corporation, Sunnyvale, Calif. 94086).

Row | Molecule | Tmax | Cmax
1 | budesonide [Group-3, reference compound] | 1.3 min | 
2 | budesonide [Group-1, reference compound] | 1.3 min | 104.5 ng/mL
3 | budesonide [Group-4] |  | 146.4 ng/mL
4 | budesonide [Group-5, reference compound] | 1.3 min | 
5 | budesonide [Group-2, reference compound] | 1.3 min | 

Conditions: in water at 20° C.; cited from earlier work

Row | Molecule | water solubility
6 | ClCCl [dichloromethane] | 13 grams/liter
7 | CCOC(C)=O [ethyl acetate] | 83 grams/liter
8 | CCOCC [diethyl ether] | 69 grams/liter
9 | CC(=O)CC(C)C [methyl isobutyl ketone] | 19 grams/liter.
10 | CC(=O)OC(C)C [isopropyl acetate] | 43 grams/liter
